The source made the active and inactive calls. No cut-off for these calls is given here.

Series [1] concerns Rattus norvegicus. As to the kind of experiment: Reduction in ADAMTS-4/ADAMTS-5 mediated aggrecan cleavage products in Lewis rat model of MIA assessed as aggrecanase-cleaved fragments at 30 mg/kg, po bid administered post 3 days MIA induction measured after 4 hrs of last dosage on day 7 by NITEGE sandwich ELISA. The class given is functional. In general terms: In an ELISA, binding on a coated surface is turned into a signal by an enzyme label.

In series [2] the test system is Rattus norvegicus. As to the kind of experiment: Reduction in ADAMTS-4/ADAMTS-5 mediated aggrecan cleavage products in Lewis rat model of MIA assessed as aggrecanase-cleaved fragments at 30 mg/kg, po qd administered post 3 days MIA induction measured after 4 hrs of last dosage on day 7 by NITEGE sandwich ELISA. Type of series: functional.
Series [3] in a line: AUC in Lewis rat at 10 mg/kg, po. Type of series: ADME, organism-based. The note with it: in vivo.
Series [4] is described as follows: Cmax in Lewis rat plasma at 10 mg/kg, po. Type of series: ADME, organism-based. The arrangement: dose 10 mg/kg, route oral.
Series [5] in a line: Plasma concentration in Lewis rat at 10 mg/kg, po bid measured after 8 hrs. Type of series: ADME, organism-based.
The nature of series [6]: Plasma concentration in Lewis rat model of MIA at 10 mg/kg, po bid administered post 3 days MIA induction measured after 4 hrs of last dosage on day 7. Type of series: ADME, organism-based.
The nature of series [7]: Plasma concentration in Lewis rat model of MIA at 30 mg/kg, po bid administered post 3 days MIA induction measured after 4 hrs of last dosage on day 7. Type of series: ADME, organism-based.

Take `C[C@@]1(O)CCCN(S(=O)(=O)c2ccc(OCc3ccc(F)cc3Cl)cc2)[C@H]1C(=O)NO`: the inhibition result with Rattus norvegicus [1] and in the series on Rattus norvegicus [2] was “inactive” in each case.

Regarding `O=C1NC(=O)[C@](CNC(=O)c2cc3cc(Cl)ccc3o2)(c2nccs2)N1`, the exposure (AUC) (as a rule, the area under the concentration-time curve, a measure of exposure) in series [3] was 130 µM·h. Moreover, the highest level in series [4] (Cmax) was 33 µM. Further, the concentration at 8 h in series [5] was 2.2 µM. Moreover, the values for the concentration at 4 h in series [6] and in series [7] were 30 µM and 90 µM, respectively.

The values are drawn from ChEMBL document CHEMBL4425099, “Use of Osmotic Pumps to Establish the Pharmacokinetic-Pharmacodynamic Relationship and Define Desirable Human Performance Characteristics for Aggrecanase Inhibitors” (J Med Chem, 2016).
